Measured values taken from patent US7517652B2, “Methods of diagnosing tumors using the G-protein coupled receptor (GPCR), RAI-3” (Bristol-Myers Squibb Company, priority 2002, dated 2009).
Entries after “also recorded” stand apart in the source; their conditions may differ. d = 2'-deoxy (DNA); r = 2'-OH (RNA)

Key:
[1] = system: muc5AC protein; experiment: muc5AC ELISA of supernatants of H292 cells exposed to cigarette smoke-bubbled media; format: cell-based, human; details: transfected H292 cells, CS-10 for 72 hours, triplicate; listed as RAI-3 siRNA 1864+1865
Description: At 24 hours post siRNA transfection, the media was changed to serum-free RPMI media containing 20 mM Glutamine and 1% Penicillin-Streptomycin and incubated at 37° C., 5% CO2, for 24 hours. At 48 hours post transfection, the serum-free RPMI media was removed from the cells and replaced with 1.0 ml of cigarette smoke-bubbled medium (i.e., CS-10, the equivalent of 10 cigarettes per 500 ml of cell culture medium) for 72 hours (96 hours post-transfection) or control. At 72 hours (96 hours post-transfection), 100 ul×3 of supernatent from each well in the 24-well plate was transferred to 96-well plate for ELISA analysis.
A muc5AC coating antibody, Gastric Mucin Ab-1 45M1 (NeoMarkers, Fremont, Calif.) was diluted 1:1000 to 1 ug/ml final in 50 mM NaHCO3 pH 9 and coated onto a standard 96-well ELISA plate overnight at room temperature with rotating. The next day the plate was washed three times with 1×PBS/0.05% Tween 20 (PBS-T) and blocked with 200 ul of blocking buffer, 1×PBS/1% BSA final (30% solution, Sigma-Aldrich Co. Saint Louis, Mo.). […] The next day the wells were washed three times with PBS-T. Muc5AC protein in the supernatent was detected with Peroxidase-Labeled Lectin from Glycine Max (Sigma-Aldrich, St. Louis, Mo.) diluted to 1ug/ml in 1×PBS/1% BSA final. […] Color reactions were stopped with 100 μl/well 1 N. H2SO4 and the absorbency at 450 nm-650 nm was measured.

[2] = system: RAI-3 mRNA; experiment: RAI-3 mRNA by real-time PCR after treatment of cells with ATRA; format: cell-based, human; details: 24 hours
Description: 1×10^6 cells of each of the HEK 293, H292 and BEAS-2B cell lines were seeded into two (replicate) 100 mM cell culture dishes containing 20 ml of RPMI complete medium which contained L-glutamine, 10% fetal bovine serum and 1% Penicillin-Streptomycin (Gibco/BRL). To one 100 mM dish, 0.2 μl of DMSO were added. To the other 100 mM dish, 0.2 μl of 10 mM ATRA (Sigma R-2625, St. […] After 24 hours at 37° C. and 5% CO2, cells were lysed with Buffer RLT (Qiagen, Hilden, Germany) and total RNA was harvested pursuant to the Rneasy Midi Kit protocol (Qiagen, Hilden, Germany). RAI-3 messenger RNA levels were measured by Real-time PCR as described below in Example 1(N).
SYBR Green PCR amplification was performed on an ABI PRISM 7700 Sequence Detection System (PE Applied Biosystems, Foster City, Calif.), and the reaction was carried out using SYBR Green PCR Core reagents (PE Applied Biosystems). Real time PCR was carried out at 40 cycles with the following parameters: 95° C. for 15 seconds and 60° C. for 60 seconds, with a pre-incubation period of 50° C. for 2 minutes, followed by 95° C. for 10 minutes. All amplification was normalized to β-actin gene amplification in the linear portion of the amplification curves. Data were then expressed as a fold increase over a reference tissue or cell type.

Compound	average ELISA signal, muc5AC protein in the supernatant [1]	RAI-3 mRNA levels ([2]; H292 cells (high basal level of RAI-3 expression))	RAI-3 mRNA levels ([2]; HEK 293, BEAS-2B and H292 cells, ATRA 1 μM)
RAI-3 siRNA reagent 1864+1865: annealed double stranded siRNA r(GGUGCAGGACUCCAACAGG)d(TT) and r(CCUGUUGGAGUCCUGCACC)d(TT), SEQ ID NO:94 and 95 (chain 1 GGUGCAGGACUCCAACAGGTT; chain 2 CCUGUUGGAGUCCUGCACCTT; sugars from the 5' end r19 d2, backbone not given here)	significantly reduced		
CC1=C(/C=C/C(C)=C/C=C/C(C)=C/C(=O)O)C(C)(C)CCC1 [ATRA, all-trans retinoic acid]		modest, but measurable increase	increase; also recorded: induced
